Results as given in patent publication US4952393A, “Organ infarct imaging with technetium labelled glucarate” (The General Hospital Corporation, priority 1988, dated 1990).
Read-outs that look alike come from different tables or passages of the source.

Experiments:
myocardial infarct = conditions: Rossman et al., J. Nucl. Med. 16: 980-985 (1975); cited from earlier work
cerebral infarct = test: Detection of cerebral infarct in the rat (gamma imaging, localization ratio); format: in vivo, Sprague-Dawley CD rats; conditions: for DDC activity (mean +/- SD), ratio infarct:normal brain: 0.6 mCi, perfusion deficit marker; for Tc-99m-glucarate activity (mean +/- SD), ratio stroke regions to normal cerebral regions: i.v., 1.5-2.0 mCi
Experimental: Tc-99m-glucarate was used to visualize cerebral infarct regions in the rat brain.
Experimental cerebral infarcts were created in 28 Sprague-Dawley CD rats (Charles River Laboratories) by injection of thrombin-generated thrombi into an isolated carotid artery. […] Imaging was performed 1.5-2.0 hours later utilizing a gamma camera having a 3 mm diameter pin hole collimator. […] The gamma images obtained were analyzed by computer planimetry. Ratios of count densities in infarct regions and normal brain regions were calculated.

[1] = Biodistribution of 99mTc-glucarate in various organs in Balb/c mice; format: in vivo; conditions: i.v., 100 uCi
Experimental: Biodistribution studies were carried out in Balb/c mice. The mice (3 mice per group) were injected intravenously with 100 uCi of technetium-labeled D-glucarate. […]

[2] = room temperature, 1 hr
Experimental: Monopotassium glucarate (25 mg) was dissolved in 0.2M bicarbonate (1.0 ml) at pH 8.0. To 500 ul of glucarate solution, 40 ul of stannous chloride (2.5 mg/ml) in 0.1M acetic acid was added, followed by 500 ul of ^99m Tc generator eluate (60 mCi). The resulting solution was allowed to stand for 5 minutes at room temperature, and then analyzed for radiochemical purity by paper chromatography (Whatman 3MM, 60% CH3 CN:40% H2 O)
^99m Tc-glucarate was prepared as described in Example 1 using different concentrations of potassium glucarate (0.09-12.25 mg/ml). The products were analyzed by paper chromatography (Whatman 3MM, 60% CH3 CN:40%H2 O; ^99m TcO4 ^-Rf= 1.0, ^99m Tc-glucarate,Rf=0.4; ^99m TcO2 ×H2 O, Rf=0).

[3] = preparation made from 12 mg/ml glucarate
Experimental: Samples of ^99m -Tc-glucarate prepared as described in Example 1 from 6 and 12 mg/ml potassium glucarate were analyzed over a period of 7 hours.

acute myocardial infarct = test: Detection of myocardial infarct in the dog (gamma camera imaging); conditions: for visualization of area of acute myocardial necrosis / blood pool activity: 80 minutes after injection; for visualization of area of acute myocardial necrosis: 10 mCi
Experimental: Mongrel dogs (n=3) were anesthetized with intravenous pentobartitol (30 mg/kg), and respiration maintained on a Harvard respirator. Left thoractomy was performed, the heart suspended in a pericardial cradle and a segment of the left anterior descending coronary artery (LAD) approximately two thirds the distance from the apex to the base was dissected free. The LAD was then occluded with a silk ligature. After three hours of LAD occlusion, the occlusive ligature was removed and reperfusion was established. At 15 minutes of reperfusion, 200 uCi of indium labeled R11D10 Fab-DTPA (Centocor, Inc.) was injected, and 30 seconds later, 10 mCi of technetium labeled glucarate was injected. Serial imaging with a gamma camera was initiated immediately upon tracer administration.
After 5 hours of in vivo imaging sessions, the dogs were sacrificed by pentobarbital overdose. Then, the cardiac tissue was stained with an intravenous triphenyltetrazolium chloride infusion. The heart was excised, washed with cold water, and imaged as a whole excised heart; and also as heart slices cut parallel to the atrioventricular groove in four slices after overnight storage at 4° C. Each slice was then divided into eight equal pieces and each piece subdivided into epicardial and endocardial samples, weighed and then counted in a gamma well counter (LKB Compu Gamma counter) for distribution of the various radioisotopes. […] Blood samples from the contralateral vein were obtained at 1, 2, 3, 4, 5, 10, 15, 20, 30, 45, 60, and 75 minutes. […] At the time of sacrifice, tissue samples from the liver, lungs, kidneys, spleen, and skeletal muscles were also obtained.

[4] = dog, listed as 99m Tc-glucarate

^99m Tc-D-glucoheptonate
success as an imaging agent for myocardial infarct (myocardial infarct): less successful

T1-201 diethyldithiocarbamate [DDC, reference compound]
DDC activity (mean +/- SD), ratio infarct:normal brain (cerebral infarct; 1 hour after infarct, rats): 0.3 +/- 0.1 | DDC activity (mean +/- SD), ratio infarct:normal brain (cerebral infarct; 3 hours after infarct, rats): 0.3 +/- 0.3 | DDC activity (mean +/- SD), ratio infarct:normal brain (cerebral infarct; 5 hours after infarct, rats): 0.4 +/- 0.2 | DDC activity (mean +/- SD), ratio infarct:normal brain (cerebral infarct; 24 hours after infarct, rats): 0.3 +/- 0.2

Tc-99m-glucarate
Biodistribution, Blood ([1]; 1 hour): 1.72 ± 0.43 % Injected Dose Per Gram | Biodistribution, Heart ([1]; 1 hour): 0.63 ± 1.10 % Injected Dose Per Gram | Biodistribution, Intestine ([1]; 1 hour): 2.90 ± 1.12 % Injected Dose Per Gram | Biodistribution, Kidneys ([1]; 1 hour): 24.3 ± 4.15 % Injected Dose Per Gram | Biodistribution, Liver ([1]; 1 hour): 1.54 ± 0.51 % Injected Dose Per Gram | Biodistribution, Lungs ([1]; 1 hour): 3.90 ± 1.80 % Injected Dose Per Gram | Biodistribution, Muscle ([1]; 1 hour): 0.32 ± 0.20 % Injected Dose Per Gram | Biodistribution, Spleen ([1]; 1 hour): 0.44 ± 0.76 % Injected Dose Per Gram | Biodistribution, Stomach ([1]; 1 hour): 0.935 % Injected Dose Per Gram | Biodistribution, Blood ([1]; 4 hours): 1.26 ± 0.22 % Injected Dose Per Gram | Biodistribution, Heart ([1]; 4 hours): 0.75 ± 1.30 % Injected Dose Per Gram | Biodistribution, Intestine ([1]; 4 hours): 2.02 ± 0.90 % Injected Dose Per Gram | Biodistribution, Kidneys ([1]; 4 hours): 28.50 ± 0.75 % Injected Dose Per Gram | Biodistribution, Liver ([1]; 4 hours): 1.49 ± 0.08 % Injected Dose Per Gram | Biodistribution, Lungs ([1]; 4 hours): 3.43 ± 1.35 % Injected Dose Per Gram | Biodistribution, Muscle ([1]; 4 hours): 2.31 ± 2.98 % Injected Dose Per Gram | Biodistribution, Stomach ([1]; 4 hours): 3.49 ± 5.10 % Injected Dose Per Gram | Biodistribution, Blood ([1]; 8 hours): 0.90 ± 0.29 % Injected Dose Per Gram | Biodistribution, Heart ([1]; 8 hours): 0.30 ± 0.52 % Injected Dose Per Gram | Biodistribution, Intestine ([1]; 8 hours): 0.89 ± 0.46 % Injected Dose Per Gram | Biodistribution, Kidneys ([1]; 8 hours): 19.20 ± 5.00 % Injected Dose Per Gram | Biodistribution, Liver ([1]; 8 hours): 1.03 ± 0.18 % Injected Dose Per Gram | Biodistribution, Lungs ([1]; 8 hours): 1.95 ± 1.04 % Injected Dose Per Gram | Biodistribution, Muscle ([1]; 8 hours): 0.59 ± 0.82 % Injected Dose Per Gram | Biodistribution, Stomach ([1]; 8 hours): 1.13 ± 0.98 % Injected Dose Per Gram | Biodistribution, Blood ([1]; 24 hours): 0.56 ± 0.09 % Injected Dose Per Gram | Biodistribution, Intestine ([1]; 24 hours): 0.58 ± 0.36 % Injected Dose Per Gram | Biodistribution, Kidneys ([1]; 24 hours): 8.4 ± 1.74 % Injected Dose Per Gram | Biodistribution, Liver ([1]; 24 hours): 0.42 ± 0.05 % Injected Dose Per Gram | Biodistribution, Lungs ([1]; 24 hours): 1.52 ± 1.02 % Injected Dose Per Gram | Biodistribution, Muscle ([1]; 24 hours): 0.68 ± 1.00 % Injected Dose Per Gram | Biodistribution, Stomach ([1]; 24 hours): 0.39 ± 0.34 % Injected Dose Per Gram | effect of duration of cerebral injury on localization (cerebral infarct; 1, 3, 5 and 24 hours, rats): did not appear to affect localization | diffusion across the blood-brain barrier (cerebral infarct; imaging in the brain): can diffuse across the blood-brain barrier | Tc-99m-glucarate activity (mean +/- SD), ratio stroke regions to normal cerebral regions (cerebral infarct; injection 1 hour after infarct, rats): 2.98 +/- 0.7 | Tc-99m-glucarate activity (mean +/- SD), ratio stroke regions to normal cerebral regions (cerebral infarct; injection 3 hours after infarct, rats): 4.1 +/- 1.7 | Tc-99m-glucarate activity (mean +/- SD), ratio stroke regions to normal cerebral regions (cerebral infarct; injection 5 hours after infarct, rats): 4.1 +/- 2.4 | Tc-99m-glucarate activity (mean +/- SD), ratio stroke regions to normal cerebral regions (cerebral infarct; injection 24 hours after infarct, rats): 4.8 +/- 1.9 | accumulation in stroke compared with 99mTc-glucoheptonate (cerebral infarct; rats): more rapid and intense | ratios of activity in stroke regions to normal cerebral regions, in words (cerebral infarct; rats): maximal in all stroke animals | time to cerebral infarct image (cerebral infarct; rats): one | visualization of cerebral infarct regions by gamma scintigraphy (cerebral infarct; rats): All cerebral infarct regions were visualized | % 99mTc-Glucarate ([2]; 0.09 mg/ml glucaric acid): 43.0% | % 99mTcO2 ([2]; 0.09 mg/ml glucaric acid): 57.0% | % 99mTc-Glucarate ([2]; 0.19 mg/ml glucaric acid): 59.0% | % 99mTcO2 ([2]; 0.19 mg/ml glucaric acid): 41.0% | % 99mTc-Glucarate ([2]; 0.38 mg/ml glucaric acid): 70.0% | % 99mTcO2 ([2]; 0.38 mg/ml glucaric acid): 30.0% | % 99mTc-Glucarate ([2]; 0.76 mg/ml glucaric acid): 75.6% | % 99mTcO2 ([2]; 0.76 mg/ml glucaric acid): 24.4% | % 99mTc-Glucarate ([2]; 1.53 mg/ml glucaric acid): 80.5% | % 99mTcO2 ([2]; 1.53 mg/ml glucaric acid): 19.5% | % 99mTc-Glucarate ([2]; 3.06 mg/ml glucaric acid): 88.5% | % 99mTcO2 ([2]; 3.06 mg/ml glucaric acid): 11.5% | % 99mTc-Glucarate ([2]; 6.12 mg/ml glucaric acid): 100.0% | % 99mTcO2 ([2]; 6.12 mg/ml glucaric acid): .0% | % 99mTc-Glucarate ([2]; 12.25 mg/ml glucaric acid): 100.0% | % 99mTcO2 ([2]; 12.25 mg/ml glucaric acid): .0% | stable for a period of [3]: about 2 hours | visualization of area of acute myocardial necrosis (acute myocardial infarct; dog): clearly visible | visualization of area of acute myocardial necrosis (acute myocardial infarct; [4]): clearly visualized | blood pool activity (acute myocardial infarct; dog): minimum blood activity | blood pool activity (acute myocardial infarct; [4]): minimum blood pool activity | time to avid myocardial infarct image (acute myocardial infarct; dogs): one and a half | uptake in area of myocardial infarction of the heart slices (acute myocardial infarct; excised heart slices, dog): Distinct uptake
